Laboratory results: PMC9271180 (Proceedings of the National Academy of Sciences of the …, 2022)

Legend:
[1] = test system: HrtBA; details: 2 mM ATP; lipid nanodiscs; 37 °C; activation of ATPase; site in HrtB dimer
[2] = biological target: HrtB permease subunit of the heme efflux pump HrtBA from Corynebacterium diphtheriae (Corynebacterium diphtheriae NCTC13129); assay: crystal structure

Row | Compound | EC50 [1] | stoichiometry N [2]
1 | C=CC1=C(C)C2=Cc3c(C=C)c(C)c4[n]3[Fe+][n]3c(c(C)c(CCC(=O)O)c3=CC3=NC(=C4)C(C)=C3CCC(=O)O)=CC1=N2 [heme] | 900 nM | –
2 | HrtB permease subunit of the heme efflux pump HrtBA from Corynebacterium diphtheriae (natural protein) | – | 2
